This is an account of results in paper PMC3744530, “CTA095, a Novel Etk and Src Dual Inhibitor, Induces Apoptosis in Prostate Cancer Cells and Overcomes Resistance to Src Inhibitors” (PLoS ONE, 2013).

In one experiment the test system is PC3-AZD20 cells. As to the kind of experiment: Annexin-V FITC apoptosis in Src inhibitor resistant cells. It is filed as cell-based, human. As to conditions: 10 μM. The procedure:
(§1) PC3-AZD20 cells were seeded at 10^6 cells/well in 6 well plates overnight. The cells were treated with AZD0530 or CTA095 at 10 μM. Apoptosis was analyzed using Annexin-V FITC apoptosis detection kit. The mRNA levels of Myc and BCL2 were measured using real-time PCR. pEtk, Etk, pSrc, Src, pStat3, Stat3, Myc and BCL2 levels were measured using the corresponding antibodies through a Western blot.
(§2) Figure 12 CTA095 induces apoptosis in Src inhibitor resistant prostate cancer cells through Myc and BCL2 inhibition. PC3-AZD20 (PC3 cell resistant to 20 μM AZD0530) cells were seeded at 10^6 cells/well in 6 well plates overnight. The cells were treated with AZD0530 or CTA095 at 10 μM. Apoptosis was analyzed using Annexin-V FITC apoptosis detection kit (A). The mRNA levels of Myc and BCL2 were measured using real-time PCR (B). pEtk, Etk, pSrc, Src, pStat3, Stat3, Myc and BCL2 levels were measured using the corresponding antibodies through Western blot (C). Columns, mean; bars, standard deviation, n = 3.

Another experiment has as its target T1, Btk (Homo sapiens, UniProt Q06187).
T1 construct: purchased Millipore Inc (Dundee, UK)
Description: Kinase inhibition assay (TLC; Kinase-Glo in Figure S2). It is filed as biochemical. As to the method: Kinase inhibition was measured using thin-layer-chromatography (TLC). Briefly, purified kinases (20 nM), the corresponding substrate (500 µM, TSFYGRH for Etk, YIYGSFK for the other kinases), and CTA095 (0–10 µM) were incubated in a kinase reaction (100 mM Hepes, pH 7.4, 10 mM MnCl2, 10 mM MgCl2, 1 mM DTT) for 5 min, and the reaction was started by adding 5 μCi ^33P-labeled ATP. The reaction (10 µl) was incubated at room temperature for 1 h and was stopped by adding 10 μL H3PO4. The radioactivity of the peptide substrate was analyzed using TLC as previously described.
Having isolated a small molecule that inhibits Etk, the next logical step was to determine its specificity for this enzyme. To accomplish this, purified Etk, Btk, Src and Yes were incubated in a kinase reaction buffer with CTA095 (0–1 μM) in the presence of ^33P-labeled ATP and a peptide (YIYGSFK), previously shown to be an excellent substrate for both BTK and Src family kinases. The kinase activity was measured using TLC technique.
Supplementary file pone.0070910.s002.tif: Figure S2 Inhibition of Btk by CTA095. Purified Btk (20 nM), CTA095 (0–100 μM), ATP (500 μM) and the peptide substrate (YIYGSFK) were incubated in a kinase reaction. The kinase activity was measured using Kinase-Glo assay kit (Promega Inc.) following the manufacture's instruction. Columns, mean; bars, standard deviation, n = 3. […]

In experiment [1] the test system is pEtk, pSrc, pSTAT3, Myc and BCL2 in PC3-AZD20 cells. As to the kind of experiment: Western blot of pEtk, pSrc, pStat3, Myc and BCL2. It is filed as cell-based, human. As to conditions: PC3-AZD20, 10 μM. The procedure:
as §1, §2
A general note: A western blot detects proteins with antibodies after separation by electrophoresis.

The subject of the next experiment is LNCAP cells. Description: MTT growth inhibition assay. It is filed as cell-based. As to conditions: Homo sapiens, 72 h. As to the method: Cells were seeded in 96-well plates and cultured overnight, followed by treatment with 0.1% DMSO, as the vehicle control, and CTA095, at the indicated concentrations for 72 h. Growth inhibition was measured using a 3-(4,5-Dimethylthiazol-2-yl)-2,5-diphenyltetrazolium bromide (MTT) assay (Roche Diagnostic, Mannheim, Germany).
Figure 5 Growth Inhibition of CTA095 to LNCAP, CWR22Rv1, PC3 prostate cancer and normal prostate (RWPE1) cells. Cells were seeded at 5,000 cells/well in 96-well plate overnight and treated with CTA095 at the indicated concentrations. The cell viability was measured using MTT assay after 72 h. dots, mean; bars, standard deviation, n = 3.

T1 sequence (Q06187 whole entry): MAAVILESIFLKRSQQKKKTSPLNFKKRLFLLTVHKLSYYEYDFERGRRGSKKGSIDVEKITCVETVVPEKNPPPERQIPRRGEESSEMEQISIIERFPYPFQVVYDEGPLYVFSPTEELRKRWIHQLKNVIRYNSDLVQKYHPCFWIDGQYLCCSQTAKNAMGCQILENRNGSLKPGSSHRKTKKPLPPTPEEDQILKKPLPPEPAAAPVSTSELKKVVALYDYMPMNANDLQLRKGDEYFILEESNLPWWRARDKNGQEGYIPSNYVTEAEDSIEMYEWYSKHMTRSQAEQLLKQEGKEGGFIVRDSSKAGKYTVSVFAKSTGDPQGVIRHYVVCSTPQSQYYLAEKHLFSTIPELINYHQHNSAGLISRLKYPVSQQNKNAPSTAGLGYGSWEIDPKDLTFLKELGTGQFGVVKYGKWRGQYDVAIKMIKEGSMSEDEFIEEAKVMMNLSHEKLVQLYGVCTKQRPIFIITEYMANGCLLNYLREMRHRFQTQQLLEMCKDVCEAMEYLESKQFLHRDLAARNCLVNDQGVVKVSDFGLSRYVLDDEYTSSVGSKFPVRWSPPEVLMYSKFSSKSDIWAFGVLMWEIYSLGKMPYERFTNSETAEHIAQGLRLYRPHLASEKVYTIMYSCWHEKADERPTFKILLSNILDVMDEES

With `O=c1[nH]c2cc3nc(-c4ccc5oc6ccccc6c5c4)n(CCCN4CCCCC4)c3cc2nc1-c1ccccc1` [CTA095, 2-(dibenzo[b,d]furan-2-yl)-7-phenyl-1-(3-(piperidin-1-yl)propyl)-1H-imidazo[4,5-g]quinoxalin-6(5H)-one], the “apoptosis in PC3-AZD20 cells” value in the experiment on PC3-AZD20 cells is reported as “Massive apoptosis was induced”. Moreover, the IC50 at Btk is more than 10 µM; with LNCAP cells it was 3.8 µM. In addition, the “pEtk, pSrc, pSTAT3, Myc and BCL2 protein levels” value in experiment [1] is reported as “all down regulated”.

The IC50 is the point on the concentration scale where inhibition reaches its midpoint. Lower therefore signals greater potency.
